Source: PubChem BioAssay AID330 (DTP/NCI, 2004)
Values joined by “and” are separate entries in the source; they are usually repeats but may differ in a detail not shown here. Equal entries are not always repeated. Inconclusive results and toxic doses are left out. The calls were made as follows: active = survival T/C of 150% or more; inactive = T/C below 125% in these data.

System: P388 leukemia ip, CD2F1 mice, survival T/C
Assay: NCI In Vivo Anticancer Drug Screen. Data for tumor model P388 Leukemia (intraperitoneal) in CD2F1 (CDF1) mice
Conditions: endpoint: median survival time, higher = longer survival
In short: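 Mice carrying the transplanted tumor received test compound or vehicle. Survival was recorded in each group, and the value is the treated-group measurement divided by that of the vehicle-treated control group.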

[1] = dose: 50.0 mg/kg/injection, schedule: Q01DX005 (ip), vehicle: Klucel (hydroxypropylcellulose) (HPC)
[2] = dose: 60.0 mg/kg/injection, schedule: Q01DX005 (ip), vehicle: saline with Tween-80
[3] = dose: 120.0 mg/kg/injection, schedule: Q01DX005 (ip), vehicle: saline with Tween-80
[4] = dose: 240.0 mg/kg/injection, schedule: Q01DX005 (ip), vehicle: saline with Tween-80
[5] = dose: 100.0 mg/kg/injection, schedule: Q01DX005 (ip), vehicle: Klucel (hydroxypropylcellulose) (HPC)
[6] = dose: 200.0 mg/kg/injection, schedule: Q01DX005 (ip), vehicle: Klucel (hydroxypropylcellulose) (HPC)
[7] = dose: 25.0 mg/kg/injection, schedule: Q01DX009 (ip), vehicle: saline with Tween-80
[8] = dose: 50.0 mg/kg/injection, schedule: Q01DX009 (ip), vehicle: saline with Tween-80
[9] = dose: 100.0 mg/kg/injection, schedule: Q01DX009 (ip), vehicle: saline with Tween-80
[10] = dose: 60.0 mg/kg/injection, schedule: Q01DX005 (ip), vehicle: Klucel (hydroxypropylcellulose) (HPC)
[11] = dose: 120.0 mg/kg/injection, schedule: Q01DX005 (ip), vehicle: Klucel (hydroxypropylcellulose) (HPC)
[12] = dose: 240.0 mg/kg/injection, schedule: Q01DX005 (ip), vehicle: Klucel (hydroxypropylcellulose) (HPC)
[13] = dose: 100.0 mg/kg/injection, schedule: Q04DX003 (ip), vehicle: saline
[14] = dose: 60.0 mg/kg/injection, schedule: Q01DX005 (ip), vehicle: saline

Measured: T/C

O=C/C=C/c1ccc([N+](=O)[O-])cc1
inactive: dose: 25.0 mg/kg/injection, schedule: Q04DX003 (ip), vehicle: saline with Tween-80 100 % of control | dose: 50.0 mg/kg/injection, schedule: Q04DX003 (ip), vehicle: saline with Tween-80 110 % of control | dose: 100.0 mg/kg/injection, schedule: Q04DX003 (ip), vehicle: saline with Tween-80 105 % of control

Nc1nc(N)c2c(ccc3nccc32)[nH]1
inactive: dose: 6.25 mg/kg/injection, schedule: Q01DX005 (ip), vehicle: saline 103 % of control | dose: 12.5 mg/kg/injection, schedule: Q01DX005 (ip), vehicle: saline 103 % of control | dose: 25.0 mg/kg/injection, schedule: Q01DX005 (ip), vehicle: saline 110 % of control

C[CH2][Ge]([CH2]C)[O]C(=O)C(=O)[O][Ge]([CH2]C)[CH2]C
inactive: dose: 12.5 mg/kg/injection, schedule: Q01DX005 (ip), vehicle: Klucel (hydroxypropylcellulose) (HPC) 100 % of control | dose: 25.0 mg/kg/injection, schedule: Q01DX005 (ip), vehicle: Klucel (hydroxypropylcellulose) (HPC) 103 % of control | [1] 118 % of control

C/C=C\c1ccc(OC(=O)NC)c(OC)c1
inactive: [2] 100 % of control | [3] 104 % of control | [4] 100 % of control

O=C1NC(=O)C(CCCCCl)N1 (configuration not stated)
inactive: [1] 100 % of control | [5] 102 % of control | [6] 98 % of control

CCCCCCCCCCC1(CCCC)C(=O)NC(=O)NC1=O
inactive: [7] 110 % of control | [8] 108 % of control | [9] 110 % of control

Cn1cnc([N+](=O)[O-])c1Sc1cn(C2CC(O)C(CO)O2)c(=O)[nH]c1=O (configuration not stated)
inactive: [10] 101 % of control | [11] 102 % of control | [12] 107 % of control

CCCCCC(/C=C/C1C(O[Si](C)(C)C(C)(C)C)CC(N(C)C)C1(C/C=C/CCCC(=O)OC)S(=O)(=O)c1ccccc1)O[Si](C)(C)C(C)(C)C (configuration not stated)
inactive: dose: 100.0 mg/kg/injection, schedule: Q04DX002 (ip), vehicle: Klucel (hydroxypropylcellulose) (HPC) 91 % of control | dose: 200.0 mg/kg/injection, schedule: Q04DX002 (ip), vehicle: Klucel (hydroxypropylcellulose) (HPC) 88 % of control | dose: 400.0 mg/kg/injection, schedule: Q04DX002 (ip), vehicle: Klucel (hydroxypropylcellulose) (HPC) 89 % of control

Cc1no[n+]([O-])c1NC(=O)OCc1ccccc1
inactive: dose: 7.5 mg/kg/injection, schedule: Q01DX005 (ip), vehicle: saline with Tween-80 96 % of control | dose: 15.0 mg/kg/injection, schedule: Q01DX005 (ip), vehicle: saline with Tween-80 100 % of control | dose: 30.0 mg/kg/injection, schedule: Q01DX005 (ip), vehicle: saline with Tween-80 99 % of control | [2] 107 % of control | [3] 101 % of control | [4] 100 % of control

Clc1nc2ccccc2nc1CI
inactive: dose: 2.66 mg/kg/injection, schedule: Q01DX009 (ip), vehicle: other 119 % of control | dose: 4.0 mg/kg/injection, schedule: Q01DX009 (ip), vehicle: other 119 % of control | dose: 6.0 mg/kg/injection, schedule: Q01DX009 (ip), vehicle: other 119 % of control | dose: 9.0 mg/kg/injection, schedule: Q01DX009 (ip), vehicle: other 114 % of control

O=C1CCCc2c1[nH]c1ccccc21
inactive: [7] 100 % of control | [8] 105 % of control | [9] 108 % of control | dose: 200.0 mg/kg/injection, schedule: Q01DX009 (ip), vehicle: saline with Tween-80 104 % of control

Cc1ccc(S(=O)(=O)CC2(Br)Cc3ccccc3C2=O)cc1 (configuration not stated)
inactive: [13] 103 % of control | dose: 200.0 mg/kg/injection, schedule: Q04DX003 (ip), vehicle: saline 100 % of control | dose: 400.0 mg/kg/injection, schedule: Q04DX003 (ip), vehicle: saline 100 % of control

Cn1cnc2c(NCCO)ncnc21
inactive: dose: 50.0 mg/kg/injection, schedule: Q01DX005 (ip), vehicle: saline with Tween-80 118 % of control | dose: 100.0 mg/kg/injection, schedule: Q01DX005 (ip), vehicle: saline with Tween-80 100 % of control | dose: 200.0 mg/kg/injection, schedule: Q01DX005 (ip), vehicle: saline with Tween-80 103 % of control

c1ccc2sc(NCCSSCCNc3nc4ccccc4s3)nc2c1
inactive: dose: 25.0 mg/kg/injection, schedule: Q01DX009 (ip), vehicle: other 100 % of control | dose: 50.0 mg/kg/injection, schedule: Q01DX009 (ip), vehicle: other 86 % of control and 92 % of control | dose: 100.0 mg/kg/injection, schedule: Q01DX009 (ip), vehicle: other 90 % of control | dose: 200.0 mg/kg/injection, schedule: Q01DX009 (ip), vehicle: other 90 % of control and 93 % of control

COc1cc2ccc3c(c2cc1OC)CN(Cc1ccccc1)CC3
inactive: dose: 100.0 mg/kg/injection, schedule: Q01DX009 (ip), vehicle: Klucel (hydroxypropylcellulose) (HPC) 100 % of control | dose: 200.0 mg/kg/injection, schedule: Q01DX009 (ip), vehicle: Klucel (hydroxypropylcellulose) (HPC) 100 % of control | dose: 400.0 mg/kg/injection, schedule: Q01DX009 (ip), vehicle: Klucel (hydroxypropylcellulose) (HPC) 109 % of control

CC1(C)N=C(N)N=C(N)N1c1ccc(CNC(=O)Nc2cccc(S(=O)(=O)F)c2)cc1
active: [13] 154 % of control | dose: 150.0 mg/kg/injection, schedule: Q04DX003 (ip), vehicle: saline 168 % of control | dose: 225.0 mg/kg/injection, schedule: Q04DX003 (ip), vehicle: saline 200 % of control

NOCc1cccc(Cl)c1
inactive: [7] 87 % of control | [9] 87 % of control

C(CSC1=NCCN1)CSC1=NCCN1
inactive: dose: 25.0 mg/kg/injection, schedule: Q01DX009 (ip), vehicle: saline 120 % of control | dose: 50.0 mg/kg/injection, schedule: Q01DX009 (ip), vehicle: saline 117 % of control

OCC1=C(CO)CC2=C(CC=CC2)C1
inactive: [1] 100 % of control | [5] 99 % of control | [6] 97 % of control

CC(/C=N/NC1=NCCN1)=N/NC1=NCCN1
inactive: dose: 50.0 mg/kg/injection, schedule: Q01DX005 (ip), vehicle: saline 102 % of control | dose: 100.0 mg/kg/injection, schedule: Q01DX005 (ip), vehicle: saline 98 % of control | dose: 200.0 mg/kg/injection, schedule: Q01DX005 (ip), vehicle: saline 99 % of control

Cc1cc(C)nc(C2=C(O)c3ccccc3C2=O)c1
inactive: [10] 106 % of control | [11] 99 % of control | [12] 87 % of control and 96 % of control

CCOP(=O)(CSCCC1(C)NC(=O)NC1=O)OCC (configuration not stated)
inactive: [14] 102 % of control | dose: 120.0 mg/kg/injection, schedule: Q01DX005 (ip), vehicle: saline 103 % of control | dose: 240.0 mg/kg/injection, schedule: Q01DX005 (ip), vehicle: saline 102 % of control

CC1CC(C)(C)C2=NCCN21 (configuration not stated)
inactive: dose: 6.25 mg/kg/injection, schedule: Q01DX009 (ip), vehicle: water 105 % of control | dose: 12.5 mg/kg/injection, schedule: Q01DX009 (ip), vehicle: water 100 % of control | dose: 15.0 mg/kg/injection, schedule: Q01DX005 (ip), vehicle: saline 106 % of control | dose: 25.0 mg/kg/injection, schedule: Q01DX009 (ip), vehicle: water 107 % of control | dose: 30.0 mg/kg/injection, schedule: Q01DX005 (ip), vehicle: saline 106 % of control | dose: 50.0 mg/kg/injection, schedule: Q01DX009 (ip), vehicle: water 107 % of control | [14] 99 % of control and 100 % of control
